pIC50: −log10 of the molar value. Where two headings read alike, the source gives them in different places.
Columns and labels:
[1] = system: P. falciparum male gametocytes; test: P. falciparum Dual Gamete Formation Assay (PfDGFA), male readout (exflagellation); assay type: cell-based, Plasmodium falciparum NF54; details: for Average inhibition male (%) / % inhibition male (individual replicates) R1 / % inhibition male (individual replicates) R4 / % inhibition male (individual replicates) R3: 24h preincubation with gametocytes; for Average inhibition male (%): average of replicates; for % inhibition male (individual replicates) R1: replicate R1; for % inhibition male (individual replicates) R4: replicate R4; for Selectivity Ratio M: HepG2 Tox50 versus male IC50; for pIC50: read-out: Male IC50; for % inhibition male (individual replicates) R3: replicate R3
Outline: (§1)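 Two sex-specific readouts come from one well: male exflagellation centres recorded by brightfield video right after activation, and female gametes scored by Cy3-anti-Pfs25 fluorescence after 24 h at 28°C.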

[2] = system: P. falciparum female gametocytes; test: P. falciparum Dual Gamete Formation Assay (PfDGFA), female readout (Pfs25-positive female gametes); assay type: cell-based, Plasmodium falciparum NF54; details: for Average inhibition female (%) / % inhibition female (individual replicates) R1 / % inhibition female (individual replicates) R3 / % inhibition female (individual replicates) R4: 24h preincubation with gametocytes; for Average inhibition female (%): average of replicates; for % inhibition female (individual replicates) R1: replicate R1; for % inhibition female (individual replicates) R3: replicate R3; for % inhibition female (individual replicates) R4: replicate R4; for Selectivity ratio F: HepG2 Tox50 versus female IC50; for pIC50: read-out: Female IC50
Outline: as §1

HepG2 cells = test: HepG2 cytotoxicity counter-screen; details: cytotoxic activity against HepG2 cells
[3] = PfDGFA, 24 h incubation with gametocytes before induction, exflagellation readout
[4] = PfDGFA, 24 h incubation with gametocytes before induction, female gamete readout

| pIC50 [1, 3] | pIC50 [2, 4] | Structure (SMILES) | Average inhibition male (%) ([1]; 2µM) | % inhibition male (individual replicates) R1 ([1]; 2µM) [%] | % inhibition male (individual replicates) R4 ([1]; 2µM) [%] | Selectivity Ratio M [1] | Average inhibition female (%) ([2]; 2µM) | % inhibition female (individual replicates) R1 ([2]; 2µM) [%] | % inhibition female (individual replicates) R3 ([2]; 2µM) [%] | % inhibition female (individual replicates) R4 ([2]; 2µM) [%] | Selectivity ratio F [2] | Tox50 (HepG2 cells) [µM] | % inhibition male (individual replicates) R3 ([1]; 2µM) [%] | other results |
| --- | --- | --- | --- | --- | --- | --- | --- | --- | --- | --- | --- | --- | --- | --- |
| 5.88 | 5.73 | Cl.N=C(NCCCCC1CCCCC1)c1cccc(C(=N)NCCCCC2CCCCC2)n1 [TCMDC-137452] | 99.3 | 93.4 | 104.5 | 2.02 | 47.7 | 57.8 | 31.9 | 45.9 | 1.43 | 2.66 |  |  |
| 5.95 | 5.84 | Clc1ccc(/N=C(/NCCCCCCCN/C(=N\c2ccc(Cl)cc2)Nc2ccc(Cl)cc2)Nc2ccc(Cl)cc2)cc1 [TCMDC-137529] | 95.0 | 95.9 | 94.9 | 2.06 | 51.0 | 61.8 | 39.3 | 54.5 | 1.6 | 2.3 |  |  |

Second part, the molecule before the results:

| Structure (SMILES) | pIC50 [1, 3] | pIC50 [2, 4] | Average inhibition male (%) ([1]; 2µM) | % inhibition male (individual replicates) R1 ([1]; 2µM) [%] | % inhibition male (individual replicates) R4 ([1]; 2µM) [%] | Selectivity Ratio M [1] | Average inhibition female (%) ([2]; 2µM) | % inhibition female (individual replicates) R1 ([2]; 2µM) [%] | % inhibition female (individual replicates) R3 ([2]; 2µM) [%] | % inhibition female (individual replicates) R4 ([2]; 2µM) [%] | Selectivity ratio F [2] | Tox50 (HepG2 cells) [µM] | % inhibition male (individual replicates) R3 ([1]; 2µM) [%] | other results |
| --- | --- | --- | --- | --- | --- | --- | --- | --- | --- | --- | --- | --- | --- | --- |
| COc1cc(CNCCCCCCNCc2cc(OC)c3ccccc3c2OC)c(OC)c2ccccc12.CS(=O)(=O)O [TCMDC-137502] | 5.92 | 5.52 |  |  |  | 3.09 |  |  |  |  | 1.24 | 3.76 |  | Average inhibition male (%) ([1]; PfDGFA at 2µM): 85.1%; % inhibition male (individual replicates) R1 ([1]; PfDGFA at 2µM): 95.4%; % inhibition male (individual replicates) R3 ([1]; PfDGFA at 2µM): 87.5%; % inhibition male (individual replicates) R4 ([1]; PfDGFA at 2µM): 90.2%; HitlevelM ([1]; number of replicates with >50% inhibition in the male readout, 2µM): 4; Average inhibition female (%) ([2]; PfDGFA at 2µM): 71.8%; % inhibition female (individual replicates) R1 ([2]; PfDGFA at 2µM): 79.7%; % inhibition female (individual replicates) R3 ([2]; PfDGFA at 2µM): 78.6%; % inhibition female (individual replicates) R4 ([2]; PfDGFA at 2µM): 84.0%; HitlevelF ([2]; number of replicates with >50% inhibition in the female readout, 2µM): 3 |
| CCCCCCC(N)c1ccc(OCCCOc2ccc(C(N)CCCCCC)cc2)cc1.Cl (centres unmarked) [TCMDC-137621] | 5.97 | 5.77 | 94.3 | 98.4 | 99.6 | 3.34 | 47.1 | 37.5 | 53.9 | 41.4 | 2.08 | 3.56 | 82.0 |  |
| CC(CO)(CO)NCc1cc2c3ccccc3c(CNC(C)(CO)CO)cc2c2ccccc12.CS(=O)(=O)O [TCMDC-137752] |  |  |  |  |  | 14.99 |  |  |  |  | 2.72 | 13.04 |  | pIC50 ([1]; Plasmodium falciparum, 24 h): 6.06; inhibition at 2 µM ([1]; Plasmodium falciparum, read-out: % inhibition male (individual replicates) R1): 93.1%; inhibition at 2 µM ([1]; Plasmodium falciparum, read-out: % inhibition male (individual replicates) R2): 93.5%; inhibition at 2 µM ([1]; Plasmodium falciparum, read-out: % inhibition male (individual replicates) R3): 85.5%; inhibition at 2 µM ([1]; Plasmodium falciparum, read-out: % inhibition male (individual replicates) R4): 90.9%; inhibition at 2 µM ([1]; Plasmodium falciparum, read-out: Average inhibition male (%)): 90.8%; pIC50 ([2]; Plasmodium falciparum, 24 h): 5.32; inhibition at 2 µM ([2]; Plasmodium falciparum, read-out: % inhibition female (individual replicates) R1): 37.9%; inhibition at 2 µM ([2]; Plasmodium falciparum, read-out: % inhibition female (individual replicates) R2): 48.4%; inhibition at 2 µM ([2]; Plasmodium falciparum, read-out: % inhibition female (individual replicates) R3): 18.2%; inhibition at 2 µM ([2]; Plasmodium falciparum, read-out: % inhibition female (individual replicates) R4): 48.2%; inhibition at 2 µM ([2]; Plasmodium falciparum, read-out: Average inhibition female (%)): 38.2% |
| CCOc1c(CCNCCCCNCCc2ccc3ccccc3c2OCC)ccc2ccccc12.CS(=O)(=O)O [TCMDC-137759] | 5.88 | 5.63 | 92.2 | 95.9 | 100.2 | 2.62 | 82.4 | 86.3 | 88.2 | 86.8 | 1.48 | 3.44 | 97.8 |  |
